Experimental findings from paper PMC10548512 (Chemical Science, 2023) are described below.

The assay deals with H1N1pdm09 virus (A/Netherlands/602/2009) I375F mutant. The conditions noted are these: 1 h.

For `CC[C@H](C)[C@@H]1NC(=O)[C@H](CS)NC(=O)[C@H](CO)NC(=O)[C@H](CCCNC(=N)N)NC(=O)[C@H](CCCNC(=N)N)NC(=O)[C@H](Cc2ccc(O)cc2)NC(=O)[C@H](CCC(N)=O)NC(=O)[C@H](Cc2ccccc2)NC(=O)[C@H](CC(N)=O)NC(=O)[C@H](CC(C)C)NC(=O)[C@@H]2CSC(=N2)c2cc(ccn2)C[C@@H](C(=O)NCC(N)=O)NC(=O)[C@H](CC(N)=O)NC(=O)[C@H](CC(C)C)NC(=O)[C@H]([C@@H](C)CC)NC(=O)[C@H](CC(N)=O)NC(=O)[C@H](CC(C)C)NC1=O` [M3], the midpoint of inhibition, the IC50, lay at 364 nM.
